According to patent publication US20250339426A1, “GCN2 MODULATOR FOR TREATING CANCER” (HIBERCELL, INC., priority 2022, published 2025):

Columns and labels:
MOLM-16 cells = assay: Seahorse XF Mito stress test (OCR) and Glycolysis Stress Test (ECAR); type: cell-based, human; conditions: 0.001, 0.1 or 10 μM, 16 hrs; strongest effect at 0.1 μM
Procedure: MOLM-16 cells were treated with 0.001, 0.1 or 10 μM HC-7366 for 16 hrs and the Seahorse XF Glycolysis Stress Test (ECAR; extracellular acidification rate) and Seahorse XF Mito stress test (OCR; oxygen consumption rate) (Agilent technologies, CA, USA) were performed.

[1] = test system: MV4-11 (human AML cancer cells); assay: In vivo tumor growth inhibition, MV4-11 xenograft; parameters: species or system BALB/c nude mice
Procedure: MV4-11 (human AML cancer cells): Female 6-8 weeks old BALB/c nude mice were inoculated subcutaneously on the right flank with MV4-11 tumor cells (1×10^7) in RPMI 1640 without serum for tumor development. The treatments were started when the mean tumor size reached approximately 150 mm^3 at Day 13 after cell inoculation and continued until end of study by twice daily oral gavage dosing of HC-7366 at listed doses (vehicle, 0.3 mg/kg HC-7366, 1 mg/kg HC-7366, 3 mg/kg HC-7366, 10 mg/kg HC-7366, or 30 mg/kg HC-7366, FIG. 20). For venetoclax combination study, venetoclax was dissolved in 0.5% carboxymethylcellulose (CMC) and co-administered at 50 mg/kg dose once daily (see Example 8).
(§1) [formula] • 2.2.2 Tumor Measurements: The measurement of tumor size was conducted three times weekly with a caliper and recorded. The tumor volume (mm^3) was estimated using the formula: TV=a×b^2/2, where “a” and “b” is long and short diameters of a tumor, respectively. Tumor volume was calculated using the formula [tumor volume (mm^3)=π/6×length×width^2).
(§2) Regression was calculated using the formula=100×ΔT/T initial, if ΔT<0. Animals with 0 mm^3 tumor volume (no measurable tumor) for three consecutive measurements were considered as complete responders and animals with 50% tumor regressions were partial responders.
MV4-11 tumors were collected at the end of the venetoclax combination study described in Example 6. Tumor growth curves are provided of MV4-11 tumors treated with single agent HC-7366 and venetoclax or combination (FIG. 43).

[2] = test system: HIF1α and HIF2a in FaDu tumors; assay: Tumor IHC, FaDu tumors; type: in vivo, BALB/c nude mice; conditions: end of study
Procedure: Immunohistochemical analysis was carried out on tumors that were collected at the end of the study described in Example 6. Formalin-fixed paraffin-embedded samples were sectioned at 5 μm thickness and mounted on Superfrost Plus microscope slides (Fisher Scientific). All immunohistochemical (IHC) staining was performed on Bond Rx auto-stainer (Leica Biosystems) using the conventional TSA-amplified detection system. Primary antibodies used were as follows: a-ASNS (Cell Signaling Technology #92479), a-PUMA (Cell Signaling Technology #98672), a-PSAT1 (Proteintech #10501-1-AP), a-PHGDH (Proteintech #14719-1-AP), HIF-1a-Novus Biologicals NB 100-479, HIF-2a-Novus Biologicals NB100-122SS, and GLUT-1-EMB Biosciences 07-1401. […]
(§3) Slides were imaged with Aperio Versa 200 (Leica Biosystems) whole-slide scanner using 10×/0.32NA objective, and the data were analyzed using custom-written macros in ImageJ/FIJI (NIH). Briefly, 150 μm of outer edges of the tumor sections and necrotic regions (determined by lack of 4′,6-diamidino-2-phenylindole (DAPI) signal or presence of condensed DNA) were eliminated from the analysis. […] Scans of immune-staining were processed to remove background, then total intensity value above appropriate threshold levels was measured and normalized to tissue area. […]

[3] = Tolerability by body weight in tumor-bearing mice; type: in vivo; conditions: NCI-H1975 study
Procedure: For routine monitoring, all study animals were monitored not only for tumor growth but also behavior such as mobility, food and water consumption (by cage side checking only), body weight (BW), eye/hair matting and any other abnormal effect. Any mortality and/or abnormal clinical signs were recorded. • 2.2.1 Body Weight (BW): Body weights of all animals were measured and recorded three times weekly throughout the study. Body weight change, expressed in %, is calculated using the following formula: […]

FaDu cells = assay: Metabolomics in wild type and GCN2 CRISPR knockout FaDu cells; type: cell-based, human; conditions: 0.1 μM
Procedure: Wild type and GCN2 CRISPR knockout FaDu cells were treated with 0.1 μM for 9 hours, and metabolomics were evaluated.

[4] = test system: newly synthesized proteins; assay: Puromycin labeling of newly synthesized proteins; type: cell-based; conditions: 100 nM
[5] = test system: HIF2α and GLUT1 in 786-O tumors; assay: Tumor IHC, 786-O tumors (DC101 combination study); type: in vivo, BALB/c nude mice; conditions: HC-7366 2 mg/kg twice daily, DC101 15 mg/kg twice a week
Procedure: 786-O (human renal cell carcinoma cancer cells): Female 6-8 weeks old BALB/c nude mice were inoculated subcutaneously on the right flank with 786-O tumor cells (5×10^6) in 0.1 ml of RPMI1640 medium without serum for tumor development. The treatments were started when the mean tumor size reached approximately 189 mm^3 after three weeks post inoculation and continued until end of study by twice daily oral gavage dosing of HC-7366 at listed doses (vehicle or 2 mg/kg HC-7366, FIGS. 52-54). For the DC101 combination study, DC101 (murine monoclonal anti-VEGFR2 antibody) was dosed at 15 mg/kg twice a week by intraperitoneal injection.
Immunohistochemical analysis was carried out on tumors that were collected at the end of the study described in Example 6. […]
as §3

[6] = test system: HT1080 (human fibrosarcoma cells); assay: In vivo tumor growth inhibition, HT1080 xenograft; parameters: species or system BALB/c nude mice; conditions: both 1 and 3 mg/kg, oral gavage
Procedure: HT1080 (human fibrosarcoma cells): Female 6-8 weeks old BALB/c nude mice were inoculated subcutaneously on the right flank with HT1080 tumor cells (1×10^7) in 0.1 ml of EMEM medium without serum for tumor development. The treatments were started when the mean tumor size reached approximately 109 mm^3 at Day 4 post inoculation and continued until end of study by oral gavage dosing of HC-7366 at listed doses (vehicle, 0.3 mg/kg HC-7366 BID (two times per day), 1 mg/kg HC-7366 BID, 3 mg/kg HC-7366 BID, 0.6 mg/kg HC-7366 QD (one time per day), 2 mg/kg HC-7366 QD, or 6 mg/kg HC-7366 QD, FIGS. 6-7).
as §1, §2

For `CNC(=O)c1ncn2cc(-c3c(F)ccc(NS(=O)(=O)c4cc(Cl)cnc4OC)c3F)ncc12` [HC-7366, 6-(3-((5-chloro-2-methoxypyridine)-3-sulfonamido)-2,6-difluorophenyl)-N-methylimidazo[1,5-a]pyrazine-1-carboxamide], which “OCR (oxygen consumption rate)” value (MOLM-16 cells) is on record?
The value was “significantly reduced”.

What about the “glycolysis (ECAR)” value (MOLM-16 cells) of the same molecule?
The value was “significantly reduced”.

And the TGI ([1]; 30 mg/kg twice daily oral)?
The TGI was 45%.

What about the TGI ([1]; venetoclax combination study, HC-7366 as a single agent, dose not stated) of the same molecule?
The TGI was 34%.

What about the HIF1α protein levels [2] of the same molecule?
Its HIF1α protein levels is “significantly reduced”.

And the HIF2a protein levels [2]?
The HIF2a protein levels was “significantly reduced”.

What about the body weight loss [3] of the same molecule?
The body weight loss was “No treatment related body weight loss”.

And the ATF4 (FaDu cells; GCN2 dependent manner)?
Its ATF4 is “induced”.

And the “level of many amino acids” value (FaDu cells; wild type FaDu cells, 9 h, GCN2-dependent)?
The value was “enhanced level”.

What about the “puromycin labeling of newly synthesized proteins” value [4] of the same molecule?
Its value is “potently reduced”.

And the “GLUT1 levels by IHC” value [5]?
Its value is “significantly reduced”.

And the “HIF2α by IHC” value ([5]; single agents and combination)?
Its value is “significantly decreased”.

What about the tumor growth inhibition [6] of the same molecule?
Its tumor growth inhibition is “up to 80%”.
